# According to article PMC4713475, “In Vivo Differences between Two Optical Isomers of Radioiodinated o-iodo-trans-decalinvesamicol for Use as a Radioligand for the Vesicular Acetylcholine Transporter” (PLoS ONE, 2016):
# Tests used:
# VAChT [1] = molecular target: T1, VAChT (Rattus norvegicus, UniProt Q62666); assay: Ex vivo autoradiography of rat brain; format: in vivo; details: 60 min post-injection, tracer alone
# T1 construct: from tissue; host or cells: brain of live male Sprague-Dawley rats (in vivo)
# T1 sequence (Q62666 1-530): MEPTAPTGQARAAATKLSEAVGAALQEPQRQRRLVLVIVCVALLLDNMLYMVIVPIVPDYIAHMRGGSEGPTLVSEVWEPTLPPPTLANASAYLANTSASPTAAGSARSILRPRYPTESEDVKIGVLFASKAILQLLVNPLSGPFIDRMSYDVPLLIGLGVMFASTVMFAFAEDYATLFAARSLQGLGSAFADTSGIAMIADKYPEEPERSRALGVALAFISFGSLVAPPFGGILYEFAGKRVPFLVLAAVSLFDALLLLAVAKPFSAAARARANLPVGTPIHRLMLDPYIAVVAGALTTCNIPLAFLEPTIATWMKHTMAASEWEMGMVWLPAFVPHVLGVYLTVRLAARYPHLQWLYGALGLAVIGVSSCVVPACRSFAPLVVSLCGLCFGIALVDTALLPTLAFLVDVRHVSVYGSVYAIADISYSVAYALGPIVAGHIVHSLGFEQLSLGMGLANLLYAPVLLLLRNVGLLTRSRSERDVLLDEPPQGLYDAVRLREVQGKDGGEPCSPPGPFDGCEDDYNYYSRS
# Description: Four SD rats were injected intravenously with either (-)-[^125I]OIDV or (+)-[^125I]OIDV (0.4 mL, 1.85 MBq) either alone as a control or with 0.25 μmol (+/–)-vesamicol via the tail vein. At 60 min post-injection, the rats were sacrificed by exsanguination, and perfused via the left ventricle with saline solution (50 mL) followed by 4% paraformaldehyde (pH 7.4, 0.1 M phosphate buffer, 100 mL). Whole brains were removed, frozen in embedding medium at -78°C and cut into 20 μm sections at -25°C using a cryostat microtome. The sections were apposed to an imaging plate (Fujifilm, BAS-IP SR 2025) for eight days. The imaging plates were scanned by a BAS-5000 phosphor image reader (Fujifilm). Ex vivo autoradiograhy of (-)-[^123I]OIDV(0.4 mL, 111 MBq) was performed by the same method of two [^125I]OIDV isomers.
# [2] = In vivo biodistribution study in rats; parameters: species or system rat; details: i.v., n = 4, mean ± SD
# Description: Three groups of male Sprague-Dawley (SD) rats (n = 4 in each group), weighing 250–300 g, were anesthetized with ether and given an intravenous (i.v.) injection of (-)-[^125I]OIDV or (+)-[^125I]OIDV (0.4 mL, 185 kBq). At 2, 30, and 60 min post-injection, the animals were sacrificed by decapitation under ether anesthesia. The organs of interest were dissected, weighed, and the radioactivity levels were measured in a gamma scintillation counter (AccuFLEX γ7010, Aloka, Tokyo). The degree of accumulation of radiotracer was expressed as a percentage of the injected dose per gram of tissue (% ID/g).
# (§1) The results of biodistribution study were statistically analyzed using one-way ANOVA (non-parametric) followed by a Mann Whitney test. Statistical comparisons for the in vivo blocking experiments were performed using one-way ANOVA (non-parametric), Kruskal-Wallis test, and Dunn’s Multiple Comparison test.
# VAChT [3] = molecular target: T1, VAChT; assay: In vivo blocking study of regional brain uptake; details: rats, 60 min
# Description: The rats were sacrificed 60 minutes after injection and their brains collected. The cortex, striatum, cerebellum, and the remainder of the brain were dissected and separated, and their weights and radioactivity measured.
# as §1
# [4] = Regional biodistribution of (+)-[3H]-3-PPP in rat's brain; format: in vivo; details: rats, n = 4, mean ± SD
# Excerpt: S1 Table The regional biodistribution of (+)-[^3H]-3-PPP in rat’s brain.
# The values are the mean ± standard deviation (SD) of four rats (n = 4) at each time point.
# VAChT [5] = molecular target: T1, VAChT; assay: VAChT in vitro competitive binding with (-)-[3H]vesamicol in rat brain preparations; details: rat brain preparations, (-)-[3H]vesamicol, 200 nM DTG to mask sigma receptors, 37°C 60 min; mean ± SD; read-out: Ki VAChT
compound,measurement,setting,value
"OC1CC2CCCCC2CC1N1CCC(c2ccccc2[123I])CC1 (single isomer, unassigned; (-)) [(-)-[^123I]OIDV]",regional brain distribution by ex vivo autoradiography,VAChT [1],same regional distribution as that of (-)-[^125I]OIDV
"OC1CC2CCCCC2CC1N1CCC(c2ccccc2[125I])CC1 (single isomer, unassigned; (+)) [(+)-[^125I]OIDV]",regional brain distribution by ex vivo autoradiography,VAChT [1],uniformly low throughout the entire rat brain
same,"Biodistribution, Blood",[2]; 2 min post-injection,0.22 ± 0.03 % ID/g
same,"Biodistribution, Cerebellum",[2]; 2 min post-injection,0.54 ± 0.15 % ID/g
same,"Biodistribution, Cortex",[2]; 2 min post-injection,0.56 ± 0.16 % ID/g
same,"Biodistribution, Heart",[2]; 2 min post-injection,2.79 ± 0.97 % ID/g
same,"Biodistribution, Kidney",[2]; 2 min post-injection,3.46 ± 0.76 % ID/g
same,"Biodistribution, Liver",[2]; 2 min post-injection,2.20 ± 0.22 % ID/g
same,"Biodistribution, Lung",[2]; 2 min post-injection,9.82 ± 1.78 % ID/g
same,"Biodistribution, Pancreas",[2]; 2 min post-injection,2.54 ± 0.57 % ID/g
same,"Biodistribution, Rest brain",[2]; 2 min post-injection,0.50 ± 0.13 % ID/g
same,"Biodistribution, Small intestine",[2]; 2 min post-injection,1.15 ± 1.31 % ID/g
same,"Biodistribution, Spleen",[2]; 2 min post-injection,1.51 ± 0.37 % ID/g
same,"Biodistribution, Stomach",[2]; 2 min post-injection,0.17 ± 0.07 % ID/g
same,"Biodistribution, Striatum",[2]; 2 min post-injection,0.49 ± 0.15 % ID/g
same,"Biodistribution, Blood",[2]; 30 min post-injection,0.06 ± 0.00 % ID/g
same,"Biodistribution, Cerebellum",[2]; 30 min post-injection,0.46 ± 0.08 % ID/g
same,"Biodistribution, Cortex",[2]; 30 min post-injection,0.46 ± 0.07 % ID/g
same,"Biodistribution, Heart",[2]; 30 min post-injection,0.45 ± 0.04 % ID/g
same,"Biodistribution, Kidney",[2]; 30 min post-injection,2.25 ± 0.07 % ID/g
same,"Biodistribution, Liver",[2]; 30 min post-injection,2.74 ± 0.20 % ID/g
same,"Biodistribution, Lung",[2]; 30 min post-injection,2.59 ± 0.38 % ID/g
same,"Biodistribution, Pancreas",[2]; 30 min post-injection,3.51 ± 0.30 % ID/g
same,"Biodistribution, Rest brain",[2]; 30 min post-injection,0.44 ± 0.06 % ID/g
same,"Biodistribution, Small intestine",[2]; 30 min post-injection,1.68 ± 0.13 % ID/g
same,"Biodistribution, Spleen",[2]; 30 min post-injection,2.33 ± 0.25 % ID/g
same,"Biodistribution, Stomach",[2]; 30 min post-injection,0.78 ± 0.73 % ID/g
same,"Biodistribution, Striatum",[2]; 30 min post-injection,0.45 ± 0.07 % ID/g
same,"Biodistribution, Blood",[2]; 60 min post-injection,0.05 ± 0.00 % ID/g
same,"Biodistribution, Cerebellum",[2]; 60 min post-injection,0.36 ± 0.05 % ID/g
same,"Biodistribution, Cortex",[2]; 60 min post-injection,0.31 ± 0.02^! % ID/g
same,"Biodistribution, Heart",[2]; 60 min post-injection,0.27 ± 0.01 % ID/g
same,"Biodistribution, Kidney",[2]; 60 min post-injection,1.47 ± 0.06 % ID/g
same,"Biodistribution, Liver",[2]; 60 min post-injection,1.94 ± 0.22 % ID/g
same,"Biodistribution, Lung",[2]; 60 min post-injection,1.32 ± 0.08 % ID/g
same,"Biodistribution, Pancreas",[2]; 60 min post-injection,2.81 ± 0.49 % ID/g
same,"Biodistribution, Rest brain",[2]; 60 min post-injection,0.32 ± 0.02^+ % ID/g
same,"Biodistribution, Small intestine",[2]; 60 min post-injection,1.60 ± 0.29 % ID/g
same,"Biodistribution, Spleen",[2]; 60 min post-injection,1.99 ± 0.18 % ID/g
same,"Biodistribution, Stomach",[2]; 60 min post-injection,0.29 ± 0.33 % ID/g
same,"Biodistribution, Striatum",[2]; 60 min post-injection,0.31 ± 0.02^$ % ID/g
same,regional brain uptake with co-injection of (+)-3-PPP,"VAChT [3]; 0.25 μmol (+)-3-PPP co-injected i.v., all four brain regions",81–88 % of control
same,regional brain uptake with co-injection of (+)-pentazocine,"VAChT [3]; 0.25 μmol (+)-pentazocine co-injected i.v., all four brain regions",No decrease in uptake
same,regional brain uptake with co-injection of vesamicol,"VAChT [3]; 0.25 μmol (+/-)-vesamicol co-injected i.v., all four brain regions",approximately 50 % of control
same,decrease in brain uptake by vesamicol,VAChT [3]; 0.250 μmol vesamicol co-injected,50–55%
CCCN1CCC[C@H](c2cccc(O)c2)C1 [(+)-[^3H]-3-PPP],"Radioactivities, Cerebellum",[4]; 15 min post-injection,0.53 ± 0.01 %ID/g
same,"Radioactivities, Cerebral cortex",[4]; 15 min post-injection,0.67 ± 0.02 %ID/g
same,"Radioactivities, Cerebellum",[4]; 30 min post-injection,0.30 ± 0.03 %ID/g
same,"Radioactivities, Cerebral cortex",[4]; 30 min post-injection,0.37 ± 0.04 %ID/g
same,"Radioactivities, Cerebellum",[4]; 60 min post-injection,0.18 ± 0.01 %ID/g
same,"Radioactivities, Cerebral cortex",[4]; 60 min post-injection,0.18 ± 0.01 %ID/g
"OC1C[C@@H]2CCCC[C@H]2CC1N1CCC(c2ccccc2I)CC1 (single isomer, unassigned; (-)) [(-)-[^125I]OIDV]",Ki,VAChT [5],22.1 nM
